Results: patent US12404241B2 (Celgene Corporation, priority 2018, dated 2025)
Structures can show the parent of a compound that is named as a salt. Where two headings read alike, the source gives them in different places.

Molecular target: T1, AR (Homo sapiens, UniProt P10275)
T1 construct: endogenous in cells; host or cells: VCaP cells
T1 sequence (P10275 1-920): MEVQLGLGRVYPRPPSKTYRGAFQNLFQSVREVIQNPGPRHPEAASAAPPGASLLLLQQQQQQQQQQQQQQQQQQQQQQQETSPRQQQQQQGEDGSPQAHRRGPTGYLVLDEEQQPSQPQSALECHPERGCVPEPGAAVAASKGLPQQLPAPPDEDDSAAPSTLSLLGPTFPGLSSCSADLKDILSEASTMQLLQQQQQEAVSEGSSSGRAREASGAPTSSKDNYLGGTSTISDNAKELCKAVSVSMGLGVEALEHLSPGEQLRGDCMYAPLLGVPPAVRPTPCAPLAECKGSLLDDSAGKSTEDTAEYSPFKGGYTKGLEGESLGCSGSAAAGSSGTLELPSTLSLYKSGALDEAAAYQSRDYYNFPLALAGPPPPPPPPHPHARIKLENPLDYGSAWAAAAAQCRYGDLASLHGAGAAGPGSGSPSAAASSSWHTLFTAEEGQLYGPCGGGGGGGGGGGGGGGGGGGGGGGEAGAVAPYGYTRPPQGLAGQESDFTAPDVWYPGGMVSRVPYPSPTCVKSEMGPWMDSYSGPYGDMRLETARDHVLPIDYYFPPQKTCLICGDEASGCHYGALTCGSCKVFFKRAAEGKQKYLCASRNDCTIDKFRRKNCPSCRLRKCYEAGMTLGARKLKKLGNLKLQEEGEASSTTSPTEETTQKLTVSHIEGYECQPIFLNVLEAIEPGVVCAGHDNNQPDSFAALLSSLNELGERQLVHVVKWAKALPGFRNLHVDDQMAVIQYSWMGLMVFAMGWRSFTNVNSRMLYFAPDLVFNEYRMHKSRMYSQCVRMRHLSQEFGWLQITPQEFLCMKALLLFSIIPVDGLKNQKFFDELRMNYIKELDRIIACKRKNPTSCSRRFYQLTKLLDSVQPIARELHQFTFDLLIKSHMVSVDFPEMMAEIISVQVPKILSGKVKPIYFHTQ
Assay: VCAP AR Degradation Assay
Format: cell-based
Details: for Y (AR degradation efficiency, % of DMSO control): class symbols *; for DC50: class symbols A-C
Outline: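 AR protein in lysates quantified by sandwich ELISA after 24 h exposure of VCaP cells at 37 °C to 10 concentrations (1:3 steps, 5 μM top, final). Four-parameter logistic fit of percent-of-DMSO levels gave DC50 (50% degradation), EC50 and minimal AR level Y.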

SMILES | Y (AR degradation efficiency, % of DMSO control) | DC50 (read-out: DC50) [nM] | DC50 [nM]
CCc1cc(N2C(=S)N(c3ccc(C#N)c(C(F)(F)F)c3)C(=O)C23CCCC3)ccc1OCCN1C[C@@H](C)N(CC(=O)Nc2cccc(NC3CCC(=O)NC3=O)c2)[C@@H](C)C1 (stereo partly drawn) [Example 267, 2-((2S,6R)-4-(2-(4-(3-(4-cyano-3-(trifluoromethyl)phenyl)-4-oxo-2-thioxo-1,3-diazaspiro[4.4]nonan-1-yl)-2-ethylphenoxy)ethyl)-2,6-dimethylpiperazin-1-yl)-N-(3-(2,6-dioxopiperidin-3-ylamino)phenyl)acetamide] | * (0<Y<=25%) | < 100 | –
CC(C)c1cc(N2C(=S)N(c3ccc(C#N)c(Cl)c3)C(=O)C2(C)C)ccc1OCCN1C[C@@H](C)N(CC(=O)Nc2cccc(NC3CCC(=O)NC3=O)c2)C[C@H]1C (stereo partly drawn) [Example 207, 2-((2R,5R)-4-(2-(4-(3-(3-chloro-4-cyanophenyl)-5,5-dimethyl-4-oxo-2-thioxoimidazolidin-1-yl)-2-isopropylphenoxy)ethyl)-2,5-dimethylpiperazin-1-yl)-N-(3-(2,6-dioxopiperidin-3-ylamino)phenyl)acetamide] | ** (25%<Y<=35%) | 100 to 500 | –
CCc1cc(N2C(=S)N(c3ccc(C#N)c(C(F)(F)F)c3)C(=O)C2(C)C)cnc1OCCN1CCN(CC(=O)Nc2cccc(NC3CCC(=O)NC3=O)c2)[C@H](C)C1 (stereo partly drawn) [Example 187, 2-((R)-4-(2-(5-(3-(4-cyano-3-(trifluoromethyl)phenyl)-5,5-dimethyl-4-oxo-2-thioxoimidazolidin-1-yl)-3-ethylpyridin-2-yloxy)ethyl)-2-methylpiperazin-1-yl)-N-(3-(2,6-dioxopiperidin-3-ylamino)phenyl)acetamide] | * (0<Y<=25%) | < 100 | –
CCc1cc(N2C(=S)N(c3cnc(C#N)c(C(F)(F)F)c3)C(=O)C2(C)C)ccc1OCCN1CCN([C@@H](C)C(=O)Nc2cc(F)cc(NC3CCC(=O)NC3=O)c2)CC1 (stereo partly drawn) [Example 116, (2S)-2-(4-(2-(4-(3-(6-cyano-5-(trifluoromethyl)pyridin-3-yl)-5,5-dimethyl-4-oxo-2-thioxoimidazolidin-1-yl)-2-ethylphenoxy)ethyl)piperazin-1-yl)-N-(3-(2,6-dioxopiperidin-3-ylamino)-5-fluorophenyl)propanamide] | * (0<Y<=25%) | < 100 | –
CC1(C)C(=O)N(c2ccc(C#N)c(C(F)(F)F)c2)C(=S)N1c1ccc(OCCN2CCN(CC(=O)Nc3cccc(NC4CCC(=O)NC4=O)c3)CC2)c(Cl)c1 (stereo not drawn) [Example 3, hydrochloride] | * (0<Y<=25%) | < 100 | –
CCc1cc(N2C(=S)N(c3cnc(C#N)c(C(F)(F)F)c3)C(=O)C2(C)C)ccc1OCCN1CC2CCC(C1)N2CC(=O)Nc1cccc(NC2CCC(=O)NC2=O)c1 (stereo not drawn) [Example 178, 2-(3-(2-(4-(3-(6-cyano-5-(trifluoromethyl)pyridin-3-yl)-5,5-dimethyl-4-oxo-2-thioxoimidazolidin-1-yl)-2-ethylphenoxy)ethyl)-3,8-diazabicyclo[3.2.1]octan-8-yl)-N-(3-(2,6-dioxopiperidin-3-ylamino)phenyl)acetamide] | ** (25%<Y<=35%) | – | < 100
CCc1cc(N2C(=S)N(c3cnc(C#N)c(C(F)(F)F)c3)C(=O)C2(C)C)ccc1OCCN1CCN(CC(=O)Nc2cc(NC3CCC(=O)NC3=O)cc(F)c2F)C(C)(C)C1 (stereo not drawn) [Example 83, 2-(4-(2-(4-(3-(6-cyano-5-(trifluoromethyl)pyridin-3-yl)-5,5-dimethyl-4-oxo-2-thioxoimidazolidin-1-yl)-2-ethylphenoxy)ethyl)-2,2-dimethylpiperazin-1-yl)-N-(5-(2,6-dioxopiperidin-3-ylamino)-2,3-difluorophenyl)acetamide] | * (0<Y<=25%) | < 100 | –
CC1(C)C(=O)N(c2ccc(C#N)c(C(F)(F)F)c2)C(=S)N1c1ccc(OCCN2CCN(CC(=O)Nc3cc(Cl)cc(NC4CCC(=O)NC4=O)c3)CC2)c(C2CC2)c1 (stereo not drawn) [Example 30, hydrochloride] | * (0<Y<=25%) | < 100 | –
CC(C)c1cc(N2C(=S)N(c3ccc(C#N)c(C(F)(F)F)c3)C(=O)C2(C)C)ccc1OCCN1C[C@@H](C)N(CC(=O)Nc2cc(Cl)cc(NC3CCC(=O)NC3=O)c2)C[C@H]1C (stereo partly drawn) [Example 175, N-(3-chloro-5-(2,6-dioxopiperidin-3-ylamino)phenyl)-2-((2R,5R)-4-(2-(4-(3-(4-cyano-3-(trifluoromethyl)phenyl)-5,5-dimethyl-4-oxo-2-thioxoimidazolidin-1-yl)-2-isopropylphenoxy)ethyl)-2,5-dimethylpiperazin-1-yl)acetamide] | * (0<Y<=25%) | 100 to 500 | –
CCc1cc(N2C(=S)N(c3ccc(C#N)c(C(F)(F)F)c3)C(=O)C2(C)C)ccc1OCCN1CCN(CC(=O)Nc2cccc(NC3CCC(=O)NC3=O)c2)C[C@@H]1C (stereo partly drawn) [Example 43, hydrochloride] | * (0<Y<=25%) | < 100 | –
Cc1cc(OCCN2CCN(CC(=O)Nc3cccc(NC4CCC(=O)NC4=O)c3)CC2)c(F)cc1N1C(=S)N(c2ccc(C#N)c(C(F)(F)F)c2)C(=O)C1(C)C (stereo not drawn) [Example 13, hydrochloride] | *** (35%<Y<50%) | < 100 | –
C[C@H](C(=O)Nc1cccc(NC2CCC(=O)NC2=O)c1)N1CCN(CCOc2ccc(N3C(=S)N(c4ccc(C#N)c(C(F)(F)F)c4)C(=O)C3(C)C)cc2Cl)CC1 (stereo partly drawn) [Example 25, hydrochloride] | *** (35%<Y<50%) | < 100 | –
CCc1cc(N2C(=S)N(c3cnc(C#N)c(C(F)(F)F)c3)C(=O)C2(C)C)ccc1OCCN1CCN([C@H](C)C(=O)Nc2cc(Cl)cc(NC3CCC(=O)NC3=O)c2)CC1 (single isomer, unassigned) [Example 113] | * (0<Y<=25%) | < 100 | –
CCC(C)c1cc(N2C(=S)N(c3cnc(C#N)c(C(F)(F)F)c3)C(=O)C2(C)C)ccc1OCCN1CCN(CC(=O)Nc2cccc(NC3CCC(=O)NC3=O)c2)CC1 (stereo not drawn) [Example 37, hydrochloride] | *** (35%<Y<50%) | 500 to 1000 | –
CC(C)c1cc(N2C(=S)N(c3ccc(C#N)c(C(F)(F)F)c3)C(=O)C23CCC3)cnc1OCCN1C[C@@H](C)N(CC(=O)Nc2cccc(NC3CCC(=O)NC3=O)c2)[C@@H](C)C1 (stereo partly drawn) [Example 227, 2-((2S,6R)-4-(2-(5-(7-(4-cyano-3-(trifluoromethyl)phenyl)-8-oxo-6-thioxo-5,7-diazaspiro[3.4]octan-5-yl)-3-isopropylpyridin-2-yloxy)ethyl)-2,6-dimethylpiperazin-1-yl)-N-(3-(2,6-dioxopiperidin-3-ylamino)phenyl)acetamide] | * (0<Y<=25%) | < 100 | –
Cc1cc(OCCN2C[C@@H](C)N(CC(=O)Nc3cccc(NC4CCC(=O)NC4=O)c3)[C@@H](C)C2)c(C(C)C)cc1N1C(=S)N(c2ccc(C#N)c(C(F)(F)F)c2)C(=O)C1(C)C (stereo partly drawn) [Example 253, 2-((2S,6R)-4-(2-(4-(3-(4-cyano-3-(trifluoromethyl)phenyl)-5,5-dimethyl-4-oxo-2-thioxoimidazolidin-1-yl)-2-isopropyl-5-methylphenoxy)ethyl)-2,6-dimethylpiperazin-1-yl)-N-(3-(2,6-dioxopiperidin-3-ylamino)phenyl)acetamide] | * (0<Y<=25%) | 100 to 500 | –
CCc1cc(N2C(=S)N(c3ccc(C#N)c(C(F)(F)F)c3)C(=O)C2(C)C)ccc1OCCN1CCN(CC(=O)Nc2cccc(NC3CCC(=O)NC3=O)c2)[C@H](CC)C1 (stereo partly drawn) [Example 260, 2-((R)-4-(2-(4-(3-(4-cyano-3-(trifluoromethyl)phenyl)-5,5-dimethyl-4-oxo-2-thioxoimidazolidin-1-yl)-2-ethylphenoxy)ethyl)-2-ethylpiperazin-1-yl)-N-(3-(2,6-dioxopiperidin-3-ylamino)phenyl)acetamide] | * (0<Y<=25%) | 100 to 500 | –
CCc1cc(N2C(=S)N(c3cnc(C#N)c(C(F)(F)F)c3)C(=O)C2(C)C)ccc1OCCN1CCN(CC(=O)Nc2cccc(N[C@@H]3CCC(=O)NC3=O)c2)[C@H](C)C1 [Example 138, 2-((R)-4-(2-(4-(3-(6-cyano-5-(trifluoromethyl)pyridin-3-yl)-5,5-dimethyl-4-oxo-2-thioxoimidazolidin-1-yl)-2-ethylphenoxy)ethyl)-2-methylpiperazin-1-yl)-N-(3-((R)-2,6-dioxopiperidin-3-ylamino)phenyl)acetamide] | * (0<Y<=25%) | < 100 | –
